Data from paper PMC5795001, “The activity of the C4-dicarboxylic acid chemoreceptor of Pseudomonas aeruginosa is controlled by chemoattractants and antagonists” (Scientific Reports, 2018).
“Also recorded” adds a separate entry of the source.

Legend:
[1] = test system: Pseudomonas aeruginosa PAO1; assay: Quantitative capillary chemotaxis assay, wild type; assay type: cell-based; details: for Role of PA2652 ligand (chemoattractant or antagonist): authors' classification from chemotaxis results; for Concentration of maximum chemotactic response / Chemotactic response: wt PAO1; for Chemotactic response: ligands at 10 µM to 100 mM
Method: Secondly, we assessed the capacity of the ligands identified to induce chemotaxis. To this end, we carried out quantitative capillary chemotaxis assays using the wt strain and PA2652 ligands at concentrations ranging from 10 µM to 100 mM.
Overnight cultures of P. aeruginosa strains were diluted to an OD660 of 0.05 in MS medium (30 mM Na2HPO4, 20 mM KH2PO4, 25 mM NH4NO3, 1 mM MgSO4) supplemented with 6 mg l^−1 Fe-citrate, trace elements[81] and 15 mM glucose as carbon source, and grown at 37 °C with orbital shaking (200 rpm). At an OD660 of 0.4 ([…]) cultures were centrifuged at 1,700 × g for 5 min and the resulting pellet was washed twice with chemotaxis buffer (50 mM potassium phosphate, […], 0.05% (v/v) glycerol, pH 7.0). Subsequently, the cells were resuspended in the same buffer, adjusted to an OD660 of 0.1 and 230 µl aliquots of the bacterial cultures were placed into 96-well plates. For the quantitative assays, one-microliter capillary tubes (Microcaps, Drummond Scientific, Ref. P1424) were heat-sealed at one end and filled with either the chemotaxis buffer (negative control) or chemotaxis buffer containing the chemoeffectors to test. The capillaries were immersed into the bacterial suspensions at its open end. After 30 min at room temperature, capillaries were removed from the bacterial suspensions, rinsed with sterile water and the content expelled into 1 ml of M9 medium salts. Serial dilutions were plated onto M9 minimal medium (containing the appropriate antibiotics) supplemented with 15 mM glucose as carbon source. The number of colony forming units was determined after overnight incubation. In all cases, data were corrected with the number of cells that swam into buffer containing capillaries.

[2] = test system: Pseudomonas aeruginosa PAO1 (wt and PA2652 mutant); assay: Growth experiments with ligands as sole carbon source; assay type: cell-based; details: M9 minimal medium, 10 mM carbon source
Description: To evaluate the physiological relevance of the ligands identified, we first addressed the question of whether they could support bacterial growth as sole carbon source. To this end, we conducted growth experiments of the wild type (wt) strain and a mutant defective in PA2652 in minimal medium supplemented with the different ligands as sole carbon sources.
Bacterial strains used in this study are listed in Supplementary Table S3. Pseudomonas aeruginosa PAO1 and its derivative strains were routinely grown at 37 °C in Luria Broth (LB; 5 g yeast extract l^−1, 10 g Bacto tryptone l^−1 and 5 g NaCl l^−1) or M9 medium supplemented with 1 mM MgSO4, 6 mg l^−1 Fe-citrate, trace elements[81] and 15 mM glucose as carbon source. For growth experiments to assess the capacity of PA2652-LBD ligands to support growth a sole C-source, PAO1 cells were pre-cultured overnight in M9 medium supplemented with 10 mM glucose and washed twice with M9 medium salts, prior to the inoculation of M9 medium containing10 mM of the different carbon sources. When necessary, the pH of the medium was adjusted to 7.0 prior to inoculation. Bacterial growth over the time was monitored using Bioscreen Microbiological Growth Analyser (Oy Growth Curves Ab Ltd, Helsinki, Finland). Escherichia coli strains were grown at 37 °C in LB. Escherichia coli DH5α was used as a host for gene cloning. When appropriate, antibiotics were used at the following final concentrations (in µg ml^−1): kanamycin, 25 (E. coli strains) and 100 (Pseudomonas strains); tetracycline, 40.

PA2652-LBD [3] = target: T1, PA2652-LBD (Pseudomonas aeruginosa, UniProt Q9I0I6); assay type: binding, Pseudomonas aeruginosa PAO1; details: for Tm increases: DSF screening as described in text, 2 °C threshold for significant hits; for Tm Shift: Biolog arrays PM1, PM2A, PM3b, PM4a, PM5, relative to ligand-free protein Tm 45.5 °C
T1 construct: The DNA fragment encoding the LBD of PA2652 (Lys^34–Thr^205) was amplified; His-tag (vector-encoded by pET28b(+) via NdeI site); made in house; host or cells: Escherichia coli BL21 (DE3)
Description: To identify ligands that may bind to the LBD of PA2652, we conducted Differential Scanning Fluorimetry (DSF) based high throughput ligand screening assays as described previously[37],[38]. DSF analyses permit the determination of melting temperature (Tm) values, which corresponds to the temperature at which half the protein is in its native conformation whereas the remaining half has undergone thermal unfolding. Since ligand binding typically enhances the thermal stability of proteins, increases in the Tm in the presence of ligands may be indicative of specific binding. We screened 450 different compounds available in five different ligand arrays from Biolog (Supplementary Fig. S3). The screened collection included different carbon and nitrogen sources, phosphorous and sulfurous compounds as well as different nutrient supplements.
Thermal shift assays were performed on a MyIQ2 Real-Time PCR instrument (BioRad). Ligands from the different compound arrays (Biolog, Hayward, CA, USA; see Supplementary Fig. S3) were dissolved in 50 μl of MilliQ water, which, according to the manufacturer, corresponds to a concentration of 10–20 mM. Screening was performed using 96 wells plates. Each well contained 20 μM of protein dialyzed into TNG buffer (20 mM Tris/HCl, 150 mM NaCl, 10% (v/v) glycerol, pH 6.7), 2.5 μl of the resuspended compounds and SYPRO Orange (Life Technologies) at 5× concentration. In a single well (ligand free protein) the compound was substituted by water. Samples were heated from 23 °C to 85 °C at a scan rate of 1 °C/min. The protein unfolding curves were obtained by following the changes in SYPRO Orange fluorescence. Melting temperatures were determined using the first derivative values from the raw fluorescence data.

PA2652-LBD [4] = target: T1, PA2652-LBD; assay: biochemical; assay type: binding, Pseudomonas aeruginosa PAO1; details: for Binding in ITC: YES/NO
Method: To unambiguously determine ligand binding, we conducted Isothermal Titration Calorimetry (ITC)[40] binding studies with the purified protein.
Experiments were conducted on a VP-microcalorimeter (Microcal, Amherst, MA, USA) at 20 °C. PA2652-LBD was dialyzed overnight against TNG buffer, adjusted to a concentration of 20–35 μM and placed into the sample cell of the instrument. The protein was titrated by the injection of 9.6–14.4 μl aliquots of 1–20 mM ligand solutions that were prepared in TNG buffer (20 mM Tris/HCl, 150 mM NaCl, 10% (v/v) glycerol, pH 6.8) immediately before use. The mean enthalpies measured from the injection of ligands into buffer were subtracted from raw titration data prior to data analysis with the MicroCal version of ORIGIN. Data were fitted with the “One binding site model”.

[5] = test system: Pseudomonas aeruginosa PAO1; assay: Capillary chemotaxis assay in presence of antagonists; assay type: cell-based; details: for Effect of antagonist on chemotaxis toward L-alanine: 1 mM L-alanine, 20 or 40 mM antagonist; for Effect of antagonist on chemotaxis toward L-malic acid: 1 mM L-malic acid, 10, 20 and 40 mM antagonist in suspension and capillary
Method: To this end we conducted chemotaxis assays toward L-malic acid in the absence or presence of 10, 20 and 40 mM of citraconic and D,L-methylsuccinic acids (that were added to both, the bacterial suspension and the chemoattractant solution). […] To verify whether the presence of antagonists may have a global inhibitory effect on the chemotactic properties of P. aeruginosa we performed assays toward L-alanine, a chemoattractant recognized by the receptors PctA and PctB[15], in the presence antagonists.
To determine the effect of antagonists in the chemotactic properties of PAO1, the assay was performed as previously described with two minor modifications: (i) Capillary tubes were filled with chemotaxis buffer containing 1 mM of the chemoattractants (L-malic acid or L-alanine) and 10–40 mM of the antagonists (methylsuccinic or citraconic acids); (ii) Bacterial cultures were washed with chemotaxis buffer and cells were finally resuspended in the same buffer but containing equimolar concentrations of methylsuccinic/citraconic acids to those present in the capillary tubes.

[6] = target: the molecule itself; assay: AUC; sedimentation velocity, ligand-free protein at 5-20 uM, 48 000 rpm, 7 °C, 20 mM PIPES pH 7.0

Molecule: O=C(O)CC(Br)C(=O)O (racemic) [D,L-bromosuccinic acid]
- Role of PA2652 ligand (chemoattractant or antagonist) [1]: chemoattractants
- Concentration of maximum chemotactic response [1]: 10 mM
- Chemotactic response [1]: Significant responses; also recorded: significant chemotaxis
- Ability to support bacterial growth as sole carbon source [2]: poorly supported bacterial growth
- Tm increases (PA2652-LBD [3]): more than 2 °C
- Kd (PA2652-LBD [4]): 1240 ± 700 µM
- Binding in ITC (PA2652-LBD [4]): YES

Molecule: CC(O)(CC(=O)O)C(=O)O (racemic) [D,L-citramalic acid]
- Concentration of maximum chemotactic response [1]: 10 mM
- Chemotactic response [1]: Significant responses; also recorded: significant chemotaxis
- Ability to support bacterial growth as sole carbon source [2]: able to efficiently sustain growth
- Tm increases (PA2652-LBD [3]): hits
- Kd (PA2652-LBD [4]): 61 ± 4 µM
- Binding in ITC (PA2652-LBD [4]): YES

Molecule: CC(CC(=O)O)C(=O)O (racemic) [D,L-methylsuccinic acid]
- Chemotactic response [1]: Minor but statistically significant responses
- Chemotactic response ([1]; listed as methylsuccinic acid): very minor responses
- Ability to support bacterial growth as sole carbon source [2]: able to efficiently sustain growth
- Effect of antagonist on chemotaxis toward L-alanine [5]: did not significantly alter the chemotaxis
- Effect of antagonist on chemotaxis toward L-malic acid [5]: reduced the chemotaxis toward L-malic acid
- Kd (PA2652-LBD [4]): 224 ± 10 µM
- Binding to PA2652-LBD in ITC (in words) (PA2652-LBD [4]): detection of binding
- Binding in ITC (PA2652-LBD [4]): YES

Molecule: C[C@@](O)(CC(=O)O)C(=O)O [D-citramalic acid]
- Binding to PA2652-LBD in ITC (in words) (PA2652-LBD [4]): no binding was observed

Molecule: O=C(O)C[C@@H](O)C(=O)O [D-malic acid]
- Tm Shift (PA2652-LBD [3]): No significant shift
- Tm increases (PA2652-LBD [3]): did not cause significant increases
- Binding to PA2652-LBD in ITC (in words) (PA2652-LBD [4]): did not show binding; also recorded: No binding

Molecule: C[C@H](CC(=O)O)C(=O)O [D-methylsuccinic acid]
- Binding to PA2652-LBD in ITC (in words) (PA2652-LBD [4]): no binding was observed

Molecule: O=C(O)/C=C/C(=O)O [Fumaric acid]
- Tm Shift (PA2652-LBD [3]): No significant shift
- Binding to PA2652-LBD in ITC (in words) (PA2652-LBD [4]): No binding
- Binding to PA2652-LBD in ITC (in words) (PA2652-LBD [4]; listed as fumaric acid): absence of binding

Molecule: O=C(O)CCCC(=O)O [Glutaric acid]
- Tm Shift (PA2652-LBD [3]): No significant shift

Molecule: N[C@@H](CC(=O)O)C(=O)O [L-Aspartic acid]
- Tm Shift (PA2652-LBD [3]): No significant shift
- Binding to PA2652-LBD in ITC (in words) (PA2652-LBD [4]; listed as L-aminosuccinic acid): No binding
- Binding to PA2652-LBD in ITC (in words) (PA2652-LBD [4]; listed as aminosuccinic acid): absence of binding

Molecule: C[C@](O)(CC(=O)O)C(=O)O [L-citramalic acid]
- Role of PA2652 ligand (chemoattractant or antagonist) [1]: chemoattractants

Molecule: C[C@@H](CC(=O)O)C(=O)O [L-methylsuccinic acid]
- Role of PA2652 ligand (chemoattractant or antagonist) [1]: antagonists

Molecule: O=C(O)[C@H](O)[C@@H](O)C(=O)O [L-tartaric acid]
- Tm Shift (PA2652-LBD [3]): No significant shift
- Binding to PA2652-LBD in ITC (in words) (PA2652-LBD [4]): No binding
- Binding to PA2652-LBD in ITC (in words) (PA2652-LBD [4]; listed as tartaric acid): absence of binding

Molecule: C[C@@H](O)[C@H](N)C(=O)O [L-threonine]
- Tm Shift (PA2652-LBD [3]): No significant shift
- Binding to PA2652-LBD in ITC (in words) (PA2652-LBD [4]): No binding

Molecule: O=C(O)CC(=O)C(=O)O [Oxaloacetic acid]
- Tm Shift (PA2652-LBD [3]): No significant shift
- Binding to PA2652-LBD in ITC (in words) (PA2652-LBD [4]): No binding
- Binding to PA2652-LBD in ITC (in words) (PA2652-LBD [4]; listed as oxalacetic acid): absence of binding

Molecule: O=C(O)CCC(=O)O [Succinic acid]
- Tm Shift (PA2652-LBD [3]): No significant shift
- Binding to PA2652-LBD in ITC (in words) (PA2652-LBD [4]): No binding
- Binding to PA2652-LBD in ITC (in words) (PA2652-LBD [4]; listed as succinic acid): absence of binding

Molecule: C/C(=C/C(=O)O)C(=O)O [citraconic acid]
- Role of PA2652 ligand (chemoattractant or antagonist) [1]: antagonists
- Chemotactic response [1]: did not cause any chemotactic response and no
- Ability to support bacterial growth as sole carbon source [2]: could not be used as sole carbon source
- Effect of antagonist on chemotaxis toward L-alanine [5]: did not significantly alter the chemotaxis
- Effect of antagonist on chemotaxis toward L-malic acid [5]: reduced the chemotaxis toward L-malic acid
- Tm increases (PA2652-LBD [3]): hits
- Kd (PA2652-LBD [4]): 210 ± 15 µM
- Binding in ITC (PA2652-LBD [4]): YES

B1: ligand binding domain (LBD) of the chemoreceptor PA2652 (domain or fragment, Pseudomonas aeruginosa PAO1, UniProt Q9I0I6 34-205, looked up)
chain: KKQADAEVKDTRERLLGDRRAELEHYVQIAMGSIQAEYDRSANGDLNARAEAIARLSKIKYGKDGYIFGYDSQVVRLFRGDSPVDVGKSFRDRRDPSGVYLNRELVEAGRNGSHYVTYTSPLPGNESVMVPKLSYTLYLPKWDMVIGSAINLDGVEAQLVEIKQDIDERIGT
notes: No removal of the tag is described; this is surmised; also called PA2652-LBD
- stoichiometry N [6]: 2
